In patent US20140350029A1 (DAINIPPON SUMITOMO PHARMA CO., LTD., priority 2011, published 2014):

Legend:
[1] = molecular target: T1, Norepinephrine α2C receptor (Homo sapiens, UniProt P18825); assay: In vitro receptor binding, norepinephrine α2C
T1 sequence (P18825 1-462): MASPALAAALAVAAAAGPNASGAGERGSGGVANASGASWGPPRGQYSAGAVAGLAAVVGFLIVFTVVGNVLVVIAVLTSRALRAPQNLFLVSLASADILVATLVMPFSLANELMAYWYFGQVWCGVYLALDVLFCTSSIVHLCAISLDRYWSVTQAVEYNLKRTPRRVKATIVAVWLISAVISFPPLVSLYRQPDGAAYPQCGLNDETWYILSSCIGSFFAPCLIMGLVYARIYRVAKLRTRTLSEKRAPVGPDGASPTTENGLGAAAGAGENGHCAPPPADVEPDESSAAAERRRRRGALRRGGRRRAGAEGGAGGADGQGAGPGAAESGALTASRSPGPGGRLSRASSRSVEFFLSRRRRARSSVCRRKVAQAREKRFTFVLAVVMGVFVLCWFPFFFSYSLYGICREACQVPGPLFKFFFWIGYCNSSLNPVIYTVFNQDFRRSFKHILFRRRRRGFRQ

[2] = system: patients with schizophrenia; assay: Quality of Well-Being (QWB-SA), 6-week placebo-controlled study; type: in vivo, human; conditions: 80 mg and 160 mg lurasidone per day, 6 weeks
Method: Quality of Well-Being (QWB) was measured according to the procedures well-established in the art. The QWB was a self administered questionnaire (QWB-SA), where the combined score ranged from 0 to 1.0 (death to optimal functioning). A patient diagnosed with schizophrenia answered five sections assessing the presence/absence of 19 chronic symptoms or problems, physical symptoms, and mental health symptoms and behaviors as well as an assessment of a person's mobility, physical activity and social activity including completion of role expectations. […] In addition, the relationship between other indicators of therapy outcome, for example, cognitive composite scores, PANSS scores, Negative Symptom Assessment Scale scores (NSA), and Montgomery-Asberg Depression Rating Scale scores (MADRS), was evaluated in relation to quality of life, as assessed by the QWB-SA. […] In addition, partial correlations were found between improvement of QWB-SA and PANSS scores, QWB-SA and MADE scores, QWB-SA and NSA scores, and QWB-SA and cognitive composite scores.

`O=C1[C@@H]2[C@H]3CC[C@H](C3)[C@@H]2C(=O)N1C[C@@H]1CCCC[C@H]1CN1CCN(c2nsc3ccccc23)CC1` [Lurasidone] was tested, and the Ki ([1]; cloned cells expressing human receptors, read-out: Binding Affinities (Ki; nM) Norepinephrine α2C) was 10.8 nM, the “affinity for α2C adrenoreceptor (in words)” value ([1]; summary of Table 2) was “moderate affinity” and the “QWB-SA score compared to placebo (endpoint ANCOVA)” value [2] was “significant improvement”.
